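Dose response: 5 concentrations. Exposure: 48 h. Format: 96-well plates. Endpoint: linear interpolation; highest concentration if not reached. GI50 is the concentration that inhibits growth by half. TGI denotes the concentration required for complete inhibition of growth.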
Tests used:
Test in all cases: NCI-60 cell line screen, 48 h
[1] = system: RXF-631 renal
[2] = system: DMS 273 small cell lung
[3] = system: DMS 114 small cell lung
[4] = system: XF 498 CNS
[5] = system: MDA-MB-231 breast
[6] = system: MDA-N

SMILES: CCOc1ccccc1NC(=O)C(=O)c1c(O)c2ccc(O)cc2oc1=O
- TGI [1]: > 100 µM
- TGI [2]: > 100 µM

SMILES: NNC(=O)N/N=C1/C(=O)N(c2ccc(Cl)c(Cl)c2)C(=O)C(=O)C1c1nc2ccccc2o1 (stereo not given)
- TGI [3]: > 100 µM
- TGI [1]: > 100 µM
- TGI [2]: > 100 µM

SMILES: CC(=O)CC(=O)ON(C)C(=O)Cc1ccccc1
- TGI [3]: > 100 µM
- TGI [4]: > 100 µM
- TGI [2]: > 100 µM

SMILES: CN(C)c1ccc(/C=N/NC(=O)c2cnc3ccccc3c2)cc1
- TGI [5]: > 100 µM
- TGI [6]: > 100 µM

SMILES: CC1(C)N=C(N)N=C(N)N1c1ccc(CCC(=O)Nc2cccc(S(=O)(=O)F)c2)cc1
- GI50 [5]: 86.8 µM
- TGI [5]: > 100 µM

SMILES: COc1ccc2c(c1)NC(=O)CN2c1nc(C)nc2ccccc12
- GI50 [5]: 0.000914 µM
- TGI [5]: > 100 µM

SMILES: CC(=O)Nc1cc(CN2CCCCC2)c(O)c2ncccc12
- TGI [5]: 55.6 µM
- TGI [6]: > 100 µM

SMILES: CCCCCC/C(CC(=O)CCC(=O)NCCc1ccccc1)=N\NC(=O)c1ccc2ccccc2c1O
- TGI [4]: > 100 µM
- TGI [1]: > 100 µM

SMILES: O=C(N/N=C/c1cccc(O)c1)c1ccc(C(F)(F)F)nc1Nc1cccc(C(F)(F)F)c1
- GI50 [5]: 1.08 µM
- TGI [5]: 3.02 µM

SMILES: N#CC(CC(=O)O)=C(c1ccccc1)c1ccccc1
- TGI [5]: > 100 µM
- TGI [6]: > 100 µM

SMILES: C[C@H](CCCOS(C)(=O)=O)[C@H]1CC[C@H]2[C@@H]3CC[C@@H]4C[C@H](OS(C)(=O)=O)CC[C@]4(C)[C@H]3CC[C@]12C
- GI50 [5]: 503 µM

SMILES: NC(N)=NC(N)=NCc1ccco1
- GI50 [5]: > 1250 µM
- TGI [5]: > 1250 µM

SMILES: ClCCCN1CCCCC1CCl (stereo not given)
- TGI [3]: > 100 µM
- TGI [2]: > 100 µM

SMILES: C#Cc1ccccc1N1C(=O)C=CC1=O
- TGI [3]: > 100 µM

SMILES: CC1CCC2[C@@H](C)COC3O[C@]4(C)CCC1C32OO4 (stereo not given in full)
- TGI [3]: > 100 µM
- TGI [2]: > 100 µM

SMILES: NC(N)=N/N=C/c1ccc(Br)cc1
- GI50 [5]: 4.49 µM
- TGI [5]: 14 µM

SMILES: COC(=O)CCc1c(/C=C2\N=C(c3ccc[nH]3)C=C2OC)[nH]c(C)c1C(=O)OCc1ccccc1
- GI50 [5]: 0.17 µM
- TGI [5]: 1.57 µM

SMILES: COn1cc(C(=O)N=C(SC)SC)c2ccccc21
- GI50 [5]: 17.5 µM
- TGI [5]: 51.3 µM

SMILES: CSc1nc(-c2cccc(NC(=O)CCl)c2)c(C#N)c(=O)n1C
- GI50 [5]: 1.6 µM
- TGI [5]: 3.38 µM

SMILES: C/C(=N\NS(=O)(=O)c1ccccc1)c1ccc[n+]([O-])n1
- TGI [3]: > 100 µM
- TGI [1]: > 100 µM
- TGI [2]: > 100 µM

SMILES: N#CCCn1c(CCC(=O)Nc2ccc(Cl)cc2Cl)n[nH]c1=S
- TGI [3]: > 100 µM
- TGI [4]: > 100 µM
- TGI [1]: > 100 µM
- TGI [2]: > 100 µM

SMILES: COc1ccc(OC)c(/C=C/C(=O)c2ccc3cc(OC)ccc3c2)c1
- GI50 [5]: > 50 µM
- TGI [5]: > 50 µM

SMILES: COC(=O)[C@]1(C)CC[C@]2(C)CC[C@]3(C)C(=CC(=O)[C@@H]4[C@@]5(C)CCC(=O)NC(C)(C)[C@@H]5CC[C@]43C)[C@@H]2C1
- GI50 [5]: 20.9 µM
- TGI [5]: 48.7 µM

SMILES: O=C1CC2OCC=C3CN4CCC56c7ccccc7N1C5C2C3CC46 (stereo not given) (tested in a mixture with another compound)
- GI50 [5]: > 50 µg/mL
- TGI [5]: > 50 µg/mL
- GI50 [6]: > 50 µg/mL
- TGI [6]: > 50 µg/mL

SMILES: Cc1ccc(SSCCCCS(=O)O)cc1
- TGI [3]: 41.9 µM
- TGI [4]: 32 µM
- TGI [1]: 77.6 µM
- TGI [2]: 65.7 µM

SMILES: COc1c(OC2OC(CO)C(O)C(O)C2O)cc2c(c1OC)-c1ccc(OC)c(=O)cc1[C@@H](NC(C)=O)CC2 (stereo not given in full)
- TGI [3]: > 97 µM
- TGI [4]: > 93 µM
- TGI [1]: > 100 µM
- TGI [2]: > 100 µM

SMILES: NC(=S)N=Nc1c(O)[nH]c2ccccc12
- GI50 [5]: 158 µM
- TGI [5]: 385 µM

SMILES: NS(=O)(=O)c1ccc(N=Nc2c(=O)[nH]c3ccc4[nH]cccc4c23)cc1
- GI50 [5]: 0.885 µM
- TGI [5]: > 7.89 µM

SMILES: CCc1cccc(CC)c1NC(=O)C1=CNC(C)=C(C(=O)Nc2c(CC)cccc2CC)C1c1ccc(O)c(OC)c1 (stereo not given)
- TGI [3]: > 100 µM
- TGI [4]: 67.3 µM
- TGI [1]: > 100 µM

SMILES: Cc1ccccc1NC(=O)CC(=O)n1nc(-c2ccccc2)c(N=Nc2ccc([N+](=O)[O-])cc2)c1-c1ccccc1
- TGI [3]: 30.3 µM
- TGI [4]: 51.7 µM
- TGI [1]: 41.6 µM
- TGI [2]: 49.4 µM

SMILES: CC(=O)OC1(C#N)CC2OC1C1NC21 (stereo not given)
- TGI [3]: > 100 µM
- TGI [4]: > 100 µM
- TGI [1]: > 100 µM

SMILES: CCCNC(=O)Nc1ccc2c(c1)Cc1cc(N(CCCl)CCCl)ccc1-2
- TGI [5]: > 100 µM

SMILES: CCCCCCCCC(=O)NCCN(CCN)C(=O)CCCCCCCC
- TGI [5]: 10.3 µM
- TGI [6]: 11.6 µM
- TGI [3]: 10.1 µM
- TGI [4]: 5.43 µM
- TGI [1]: 13 µM
- TGI [2]: 6.65 µM

SMILES: CC(=O)N1CCN(C=S)CC1
- TGI [3]: > 100 µM
- TGI [4]: > 100 µM
- TGI [1]: > 100 µM
- TGI [2]: > 100 µM

SMILES: CC(C)Cn1cnc2c(SCc3ccccn3)nc(N)nc21
- TGI [5]: > 100 µM
- TGI [6]: > 100 µM

SMILES: Nc1nc(N)c(-c2ccc(Cl)cc2)c(/C=C/c2ccc([N+](=O)[O-])cc2)n1
- GI50 [5]: 8.01 µM
- TGI [5]: > 100 µM

SMILES: OCC(O)C(OC1OC(CO)C(O)C(O)C1O)c1nn(-c2ccc(Cl)cc2)c2nc3cc(Cl)ccc3nc12 (stereo not given)
- TGI [3]: > 100 µM
- TGI [4]: > 100 µM
- TGI [1]: > 100 µM

SMILES: O=C(OCc1ccccc1)c1ccccc1-c1c2ccc(=O)cc-2oc2cc(OCc3ccccc3)ccc12
- TGI [4]: 33.6 µM
- TGI [2]: > 100 µM

— PubChem BioAssay (NCI)
